Like-named read-outs stand apart in the source and are kept apart here.
Tests used:
[1] = tested on: PD1 signal sequence plus 10 amino acids fused to Gaussia Luciferase (PD1-ss+10aa/Gaussia Luciferase); assay: Dox Induced PD1-ss-Gluc Assay; type: cell-based; settings: 24 hr, read-out: 24 hr Dox Inducible PD1ssGluc 293FRT/TO: Mean IC50
Outline: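 Stable Flp-In 293 T-REx line expressing the fusion under tetracycline-inducible control, plated the day before assay. Compound dilutions added with doxycycline and incubated at 37 °C, 5% CO2; unspecified stereocentres mean data refer to stereoisomer mixtures.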

[2] = tested on: full length TNFα (amino acids 1-233) fused to Gaussia Luciferase; assay: Dox Induced TNFα-FL-Gluc Assay; type: cell-based; settings: 24 hr, read-out: 24 hr Dox Inducible TNFaFLGluc 293FRT/TO: Mean IC50
Outline: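 Stable Flp-In 293 T-REx line expressing doxycycline-inducible full-length TNFα fused to Gaussia luciferase; cells plated the day before, then treated with compound dilutions in doxycycline-containing medium at 37° C, 5% CO2. Unspecified stereocentres mean stereoisomer mixtures were tested.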

[3] = tested on: full length IL-2 (amino acids 1-153) fused to Gaussia Luciferase; assay: Dox Induced IL2-FL-Gluc Assay; type: cell-based; settings: 24 hr, read-out: 24 hr Dox Inducible IL2FLGluc 293FRT/TO: Mean IC50
Source text: FIp-In 293 T-REx™ cells were transfected with pcDNA™5/FRT/TO plasmid inserted with cDNA encoding Gaussia Luciferase fused to the 3′ end of cDNA encoding full length IL-2 (amino acids 1-153). Transfected cells were selected for resistance to the selectable markers Hygromycin and Blasticidin to create a stable cell line that contained the IL-2-FL/Gaussia Luciferase cDNA insert whose expression was regulated under the T-REx™ system. The day before assay, cells were trypsinized and plated in 384-well tissue culture plates. The next day, compound dilutions in DMSO/media containing doxycycline were added to the wells and incubated at 37° C., 5% CO2.
For chemical structures that include one or more stereoisomers, but are illustrated without indicating stereochemistry, the assay data refers to a mixture of stereoisomers.

[4] = tested on: multiple myeloma cell line NCl-H929; assay: H929 Cell Viability Assay; type: cell-based, human; settings: Homo sapiens, NCI-H929, 48 h
Outline: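 NCI-H929 myeloma cells in RPMI 1640 with 10% FBS were treated with compound dilutions for 48 h at 37 °C, and viability was then read by CellTiter-Glo luminescence. Compounds drawn without stereochemistry were tested as stereoisomer mixtures.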

[5] = tested on: multiple myeloma cell line U266B1; assay: U266 Cell Viability Assay; type: cell-based, human; settings: Homo sapiens, U-266, 48 hr
Outline: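 U266B1 myeloma cells in RPMI 1640 with 10% FBS were treated with compound dilutions for 48 h at 37° C, 5% CO2. Viability was read as CellTiter-Glo luminescence. Data for structures drawn without stereochemistry refer to stereoisomer mixtures.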

[6] = In Vitro Microsome Stability Assay (human); type: in vitro ADME
Outline: (§1)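 Test article, added from a 0.25 mM DMSO stock, was incubated with liver microsomes (20 mg/mL stock) in 0.1 M potassium phosphate at 37° C, with the reaction started by NADPH. Samples were quenched with acetonitrile containing internal standard at 0 and 30 min and analysed by LC-MS/MS. Values are % remaining at 30 min versus 0 min, using IS-normalised AUC ratios.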

[7] = In Vitro Microsome Stability Assay (mouse); type: in vitro ADME
Outline: as §1

[8] = In Vitro Microsome Stability Assay (rat); type: in vitro ADME
Outline: as §1

[9] = In Vitro Microsome Stability Assay (monkey); type: in vitro ADME
Outline: as §1

[10] = H929, read-out: 48 hr H929 Viability Celltiter-Glo: Mean EC50
[11] = U266, read-out: 48 hr U266 Viability Celltiter-Glo: Mean EC50
[12] = human liver microsomes, 30 min w/ NADPH
[13] = monkey liver microsomes, 30 min w/ NADPH
[14] = mouse liver microsomes, 30 min w/ NADPH
[15] = rat liver microsomes, 30 min w/ NADPH

| IC50 ([1]; 293FRT/TO) [nM] | IC50 ([2]; 293FRT/TO) [nM] | IC50 ([3]; 293FRT/TO) [nM] | EC50 [4, 10] [nM] | EC50 [5, 11] [nM] | Liver Microsome Stability-% Left after 30 min w/ NADPH (%) Human ([6]; human, 30 min, NADPH) [%] | Liver Microsome Stability-% Left after 30 min w/ NADPH (%) Mouse ([7]; mouse, 30 min, NADPH) [%] | Liver Microsome Stability-% Left after 30 min w/ NADPH (%) Rat ([8]; rat, 30 min, NADPH) [%] | Liver Microsome Stability-% Left after 30 min w/ NADPH (%) Monkey ([9]; monkey, 30 min, NADPH) [%] | Liver Microsome Stability-% Left after 30 min w/ NADPH (%) Human [6, 12] [%] | Liver Microsome Stability-% Left after 30 min w/ NADPH (%) Monkey [9, 13] [%] | IC50 ([1]; Dox inducible, 293FRT/TO cells) [nM] | IC50 ([2]; Dox inducible, 293FRT/TO cells) [nM] | IC50 ([3]; Dox inducible, 293FRT/TO cells) [nM] | EC50 ([4]; H929, Celltiter-Glo) [nM] | EC50 ([5]; U266, Celltiter-Glo) [nM] | Liver Microsome Stability-% Left after 30 min w/ NADPH (%) Mouse [7, 14] [%] | Liver Microsome Stability-% Left after 30 min w/ NADPH (%) Rat [8, 15] [%] | SMILES |
| --- | --- | --- | --- | --- | --- | --- | --- | --- | --- | --- | --- | --- | --- | --- | --- | --- | --- | --- |
| 36.4 | 550 | 78.3 | 800 | > 25000 | 42.1 | 45.7 | 45.5 | 30.3 | – | – | – | – | – | – | – | – | – | C[C@H]1CN(S(=O)(=O)c2ccc(N(C)C)cc2)CCCN(CC2CCCCC2)CCCN(S(=O)(=O)N2CCN(c3ccccc3F)CC2)C1 [A94, 4-{[(3S)-9-(cyclohexylmethyl)-5-{[4-(2-fluorophenyl)piperazin-1-yl]sulfonyl}-3-methyl-1,5,9-triazacyclododecan-1-yl]sulfonyl}-N,N-dimethylaniline] |
| 198 | 4900 | 391 | 6710 | > 25000 | 43.9 | 54.2 | 43.1 | 46.1 | – | – | – | – | – | – | – | – | – | C[C@H]1CN(S(=O)(=O)c2ccc(N(C)C)cc2)CCCN(CC2CCCCC2)CCCN(S(=O)(=O)N2CCN(c3cccc(F)c3)CC2)C1 [A95, 4-{[(3S)-9-(cyclohexylmethyl)-5-{[4-(3-fluorophenyl)piperazin-1-yl]sulfonyl}-3-methyl-1,5,9-triazacyclododecan-1-yl]sulfonyl}-N,N-dimethylaniline] |
| 122 | 1850 | 232 | 5100 | > 25000 | 40.5 | 37.6 | 41.9 | 32.8 | – | – | – | – | – | – | – | – | – | C[C@H]1CN(S(=O)(=O)c2ccc(N(C)C)cc2)CCCN(CC2CCCCC2)CCCN(S(=O)(=O)N2CCN(c3ccc(F)cc3)CC2)C1 [A96, 4-{[(3S)-9-(cyclohexylmethyl)-5-{[4-(4-fluorophenyl)piperazin-1-yl]sulfonyl}-3-methyl-1,5,9-triazacyclododecan-1-yl]sulfonyl}-N,N-dimethylaniline] |
| 41.8 | 566 | 87 | 726 | > 25000 | 71.1 | 77.7 | 71.4 | 66.1 | – | – | – | – | – | – | – | – | – | Cc1ccccc1N1CCN(S(=O)(=O)N2CCCN(CC3CCCCC3)CCCN(S(=O)(=O)c3ccc(N(C)C)cc3)C[C@H](C)C2)CC1 [A97, 4-{[(3S)-9-(cyclohexylmethyl)-3-methyl-5-{[4-(2-methylphenyl)piperazin-1-yl]sulfonyl}-1,5,9-triazacyclododecan-1-yl]sulfonyl}-N,N-dimethylaniline] |
| 202 | 7340 | 351 | > 25000 | > 25000 | 57.5 | 55.2 | 32.8 | 26.9 | – | – | – | – | – | – | – | – | – | Cc1cccc(N2CCN(S(=O)(=O)N3CCCN(CC4CCCCC4)CCCN(S(=O)(=O)c4ccc(N(C)C)cc4)C[C@H](C)C3)CC2)c1 [A98, 4-{[(3S)-9-(cyclohexylmethyl)-3-methyl-5-{[4-(3-methylphenyl)piperazin-1-yl]sulfonyl}-1,5,9-triazacyclododecan-1-yl]sulfonyl}-N,N-dimethylaniline] |
| 116 | 3540 | 350 | > 25000 | > 25000 | – | 60.8 | 50.8 | – | 41.9 | 37 | – | – | – | – | – | – | – | Cc1ccc(N2CCN(S(=O)(=O)N3CCCN(CC4CCCCC4)CCCN(S(=O)(=O)c4ccc(N(C)C)cc4)C[C@H](C)C3)CC2)cc1 [A99, 4-{[(3S)-9-(cyclohexylmethyl)-3-methyl-5-{[4-(4-methylphenyl)piperazin-1-yl]sulfonyl}-1,5,9-triazacyclododecan-1-yl]sulfonyl}-N,N-dimethylaniline] |
| – | – | – | – | – | – | – | – | – | 0.22 | 0.04 | 1150 | > 25000 | 1560 | > 25000 | > 25000 | 0.1 | 2.18 | C[C@H]1CN(S(=O)(=O)c2ccc(N(C)C)cc2)CCCN(CC2CCCCC2)CCCN(S(=O)(=O)N2CCN(C(=O)c3ccccc3)CC2)C1 [A100, 4-{[(3S)-5-[(4-benzoylpiperazin-1-yl)sulfonyl]-9-(cyclohexylmethyl)-3-methyl-1,5,9-triazacyclododecan-1-yl]sulfonyl}-N,N-dimethylaniline] |
| – | – | – | – | – | – | – | – | – | 30.2 | 18.8 | 220 | 3430 | 564 | > 25000 | > 25000 | 20.8 | 25.4 | C[C@H]1CN(S(=O)(=O)c2ccc(N(C)C)cc2)CCCN(CC2CCCCC2)CCCN(S(=O)(=O)N2CC(c3ccccc3)C2)C1 [A101, 4-{[(3S)-9-(cyclohexylmethyl)-3-methyl-5-[(3-phenylazetidin-1-yl)sulfonyl]-1,5,9-triazacyclododecan-1-yl]sulfonyl}-N,N-dimethylaniline] |
| – | – | – | – | – | – | – | – | – | 62.3 | 70 | 33.4 | 477 | 90.5 | 558 | > 25000 | 86.6 | 101.9 | Cc1cc(F)ccc1N1CCN(S(=O)(=O)N2CCCN(CC3CCCCC3)CCCN(S(=O)(=O)c3ccc(N(C)C)cc3)C[C@H](C)C2)CC1 [A102, 4-{[(3S)-9-(cyclohexylmethyl)-5-{[4-(4-fluoro-2-methylphenyl)piperazin-1-yl]sulfonyl}-3-methyl-1,5,9-triazacyclododecan-1-yl]sulfonyl}-N,N-dimethylaniline] |
| – | – | – | – | – | – | – | – | – | 31.6 | 38.5 | 446 | > 25000 | 698 | > 25000 | > 25000 | 42.2 | 36.5 | C[C@H]1CN(S(=O)(=O)c2ccc(N(C)C)cc2)CCCN(C(=O)OCc2ccccc2)CCCN(S(=O)(=O)N2CCc3cc(Cl)ccc3C2)C1 [A103] |

From patent US11578055B2, “Triazacyclododecansulfonamide (“TCD”)-based protein secretion inhibitors” (KEZAR LIFE SCIENCES, priority 2018, dated 2023)
